Experimental data reported in patent US9957263B2, “Bromodomain inhibitors” (AbbVie Inc., priority 2013, dated 2018).

Experiments:
BRD4 (BDI_K57-E168) = BRD4 (BDI_K57-E168) (Homo sapiens (Human), UniProt O60885); assay: TR-FRET bromodomain binding assay, BRD4 first bromodomain; conditions: His-tagged BD1, Alexa647-labeled probe 100 nM
How it was run: (§1)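 Affinity for each isolated His-tagged domain was measured as competition with a fluorescent Alexa647 BET-inhibitor probe in a TR-FRET format at pH 6.0, 1 h room temperature incubation. Ki values were calculated from fitted IC50s, probe Kd and probe level (100 nM BDI, 30 nM BDII).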

[1] = system: LPS induced IL-6 (Interleukin-6) production; assay: LPS (lipopolysaccharide) induced IL-6 production mouse assay; format: in vivo; conditions: CD-1 female mice, oral administration one hour before LPS 2.5 mg/kg intraperitoneal, serum 2 hours after LPS; p value less than 0.05
Description: Example 2 was assayed for its ability to inhibit LPS (lipopolysaccharide) induced IL-6 (Interleukin-6) production in mice. CD-1 female mice (Charles River Laboratories, 5 per group) received an intraperitoneal challenge of lipopolysaccharide (2.5 mg/kg, L2630 E. coli 0111:B4) one hour after oral administration of compound or compound vehicle. Mice were euthanized 2 hours after lipopolysaccharide injection, blood was removed by cardiac puncture, and then the serum harvested from the blood samples was frozen at −80 OC. On the day of the assay the serum samples were brought to room temperature and then diluted 1:20 in phosphate-buffered saline containing 2% bovine serum albumin. Interleukin-6 measurements were performed using a cytokine assay from Meso Scale Discovery (Gaithersburg, Md.) for mouse serum analysis according to the manufacturer's protocol and read on a SECTOR Imager 6000 (Meso Scale Discovery, Gaithersburg, Md.) instrument. Statistical analysis was performed using Prism software (version 5.0) incorporating Dunnett's one way ANOVA. The IL-6 mean and standard deviation of the group of vehicle treated animals were compared with the IL-6 mean and standard deviation of the group treated with drug. A p value <0.05 means that there is less than a 5% probability that the mean values in the two groups are equal.

BRD4 (BDII_E352-M457) = BRD4 (BDII_E352-M457) (Homo sapiens (Human), UniProt O60885); assay: TR-FRET bromodomain binding assay, BRD4 second bromodomain; conditions: His-tagged BD2, Alexa647-labeled probe 30 nM
How it was run: as §1

[2] = system: breast cancer cell line MX-1; assay: MX-1 cell line proliferation assay, Method A; format: cell-based; conditions: MX-1 cells, 96-well, 72 hours, Cell Titer Glo; read-out: Cellular proliferation: EC50 Method A
Description: The impact of compounds of the Examples on cancer cell proliferation was determined using the breast cancer cell line MX-1 (ATCC) in a 3-day proliferation assay and the data are reported in Table 1.
For compound testing, MX-1 cells were plated in 96-well black bottom plates at a density of 5000 cells/well in 90 μL of culture media and incubated at 370 overnight to allow cell adhesion and spreading. Compound dilution series were prepared in DMSO via a 3-fold serial dilution from 3 mM to 0.1 μM. The DMSO dilution series were then diluted 1:100 in phosphate buffered saline, and 10 μL of the resulted solution were added to the appropriate wells of the MX-1 cell plate. The final compound concentrations in the wells were 3, 1, 0.3, 0.1, 0.03, 0.01, 0.003, 0.001, 0.0003 and 0.0001 μM.
Luminescence readings from the Cell Titer Glo assay were normalized to the DMSO treated cells and analyzed using the GraphPad Prism software with sigmoidal curve fitting to obtain EC50s. The minimum significant ratio (MSR) was determined to evaluate assay reproducibility (Eastwood et al., (2006) J Biomol Screen, 11: 253-261).

| Ki (BRD4 (BDI_K57-E168)) | Ki (BRD4 (BDII_E352-M457)) | SMILES | inhibition of LPS induced IL-6 production [1] | EC50 [2] |
| --- | --- | --- | --- | --- |
| 57 nM | 4 nM | CCS(=O)(=O)Nc1cc(-c2cn(C)c(=O)c3[nH]ccc23)c(Oc2ccc(F)cc2F)cc1CN(C)C [Example 2, N-[4-(2,4-difluorophenoxy)-2-[(dimethylamino)methyl]-5-(6-methyl-7-oxo-6,7-dihydro-1H-pyrrolo[2,3-c]pyridin-4-yl)phenyl]ethanesulfonamide] | 45% | – |
| – | – | COc1ccc(S(=O)(=O)Nc2cccc(Oc3ccc(S(C)(=O)=O)cc3-c3cn(C)c(=O)c4[nH]ccc34)c2)cc1OC [Example 53] | – | 144 nM |
| – | – | Cn1cc(-c2cc(S(C)(=O)=O)ccc2NC2CCN(S(=O)(=O)/C=C/c3ccccc3)CC2)c2cc[nH]c2c1=O [Example 102] | – | 67.3 nM |
